From patent publication US20060160893A1, “Method for enhancing the quality of berry fruit” (priority 2001, published 2006)

How the values were obtained:
[1] = test system: Botrytis gray mold of red raspberry; experiment: Example 6: field application, Botrytis gray mold of red raspberry, storage evaluation; format: in vivo
Experimental: (§1) All examples are conducted under field conditions using accepted grower practices. The mixtures of I and II are applied to field grown plants, not as a post harvest berry treatment.
(§2) The use of corrected means is standard practice in field evaluations of pesticides. Corrected means are calculated as follows: [formula]
(§3) In the following examples, Fungicide A=a mixture of cyprodinil (I) and fludioxonil (II) (mixing ratio 1.5:1) applied as a 62.5% by weight water dispersible granule (WG) formulation.
Fungicide A is applied to field grown red raspberry and shelf-life evaluations made.
Healthy berries are harvested from each treatment and placed into storage and evaluated for Botrytis control (see table below).

[2] = test system: Botrytis gray mold of strawberry; experiment: Example 1: field application, Botrytis gray mold of strawberry, cool storage shelf-life evaluation; format: in vivo; conditions: for % Control: 7 day storage, relative to untreated check
Experimental: as §1, §2, §3
Performance of Fungicide a Against Botrytis Gray Mold of Strawberry. Fungicide A is applied in the field; berries are then harvested and placed into cool storage for shelf-life evaluations (no additional sprays were made after harvest).

In the case of `O=C1C2CC=CCC2C(=O)N1SC(Cl)(Cl)Cl` (stereo not drawn) [Captan, captan], the “% Botrytis Infect Berries (6 Day Storage Rating)” value [1] was 88.2%, the “% Botrytis Disease Control (6 Day Storage Rating)” value ([1]; relative to untreated check) was 7% and the “% Control” value ([2]; inoculated) was 28%. For the same compound, the “% Control” value ([2]; non-inoculated) was 70%, the “% Pest Incidence Fruit Rating 7 Day Storage Rating Inoculated” value ([2]; strawberry variety 'Chandler', inoculated) was 51% and the “% Pest Incidence Fruit Rating 7 Day Storage Rating Non-inoculated” value ([2]; strawberry variety 'Chandler', non-inoculated) was 6%.
